Laboratory results published in article PMC10827914 (Cellular and Molecular Life Sciences: CMLS, 2024).
Where a name gives a salt, the structure may show the parent alone.

Tests used:
[1] = tested on: HUVEC; test: HUVEC cell adhesion assay on coated microtiter plates; type: cell-based, human; conditions: plates coated with 10 µg/mL, 4 × 10^5 HUVEC, 2.5 h, 37 °C, crystal violet, absorbance 540 nm
Protocol: The peptide VGCARRYCSGGSGGGSGK-biotin, with a biotin moiety linked to the ε-aminogroup of the Lys residue (ProteoGenix), was complexed with streptavidin (G4-streptavidin) or avidin (G4-avidin) by mixing it with a molar excess of streptavidin or avidin in DPBS (1:6 mol/mol), followed by incubation for 1 h at room temperature under mild stirring. To perform the cell adhesion assay, 96-well polyvinyl chloride microtiter plates were coated with G4-avidin or G4-streptavidin (10 µg/mL in DPBS, overnight, 4 °C). After blocking with 2% BSA in EBM-2 (45 min at room temperature), 4 × 10^5 HUVEC were seeded in Endothelial Cell Growth Basal Medium-2 (EBM-2, Cat. # 00190860, Lonza) and incubated for 2.5 h at 37 °C, 5% CO2. Unbound cells were removed by washing with EBM-2, and adherent cells were fixed with 3% paraformaldehyde and 2% sucrose in DPBS and stained with 0.5% crystal violet. The number of adherent cells was quantified by measuring the absorbance of the wells at 540 nm wavelength using a microplate reader.
Fig. 7 Adhesion of HUVEC cells to microtiter plates coated with G4-avidin or G4-streptavidin conjugates. Representative images of wells coated with 10 µg/mL of G4-avidin (A) or G4-streptavidin (B) complexes. Wells coated with avidin or streptavidin were used as negative controls. The absorbance of crystal violet-stained adherent cells is also shown. […]

[2] = molecular target: T1, recombinant human CD13 (rCD13) (Homo sapiens, UniProt P15144); test: rCD13 enzyme inhibition assay, L-alanine-p-nitroanilide substrate; type: biochemical; conditions: Fig. 4B and 4E, one experiment in duplicate
T1 construct: consisting of the CD13 extracellular domain expressed in HEK-293 cells; His-tag; purchased Sino Biological 10051-H08H; host or cells: HEK-293 cells
T1 sequence (P15144 33-967 limits assumed): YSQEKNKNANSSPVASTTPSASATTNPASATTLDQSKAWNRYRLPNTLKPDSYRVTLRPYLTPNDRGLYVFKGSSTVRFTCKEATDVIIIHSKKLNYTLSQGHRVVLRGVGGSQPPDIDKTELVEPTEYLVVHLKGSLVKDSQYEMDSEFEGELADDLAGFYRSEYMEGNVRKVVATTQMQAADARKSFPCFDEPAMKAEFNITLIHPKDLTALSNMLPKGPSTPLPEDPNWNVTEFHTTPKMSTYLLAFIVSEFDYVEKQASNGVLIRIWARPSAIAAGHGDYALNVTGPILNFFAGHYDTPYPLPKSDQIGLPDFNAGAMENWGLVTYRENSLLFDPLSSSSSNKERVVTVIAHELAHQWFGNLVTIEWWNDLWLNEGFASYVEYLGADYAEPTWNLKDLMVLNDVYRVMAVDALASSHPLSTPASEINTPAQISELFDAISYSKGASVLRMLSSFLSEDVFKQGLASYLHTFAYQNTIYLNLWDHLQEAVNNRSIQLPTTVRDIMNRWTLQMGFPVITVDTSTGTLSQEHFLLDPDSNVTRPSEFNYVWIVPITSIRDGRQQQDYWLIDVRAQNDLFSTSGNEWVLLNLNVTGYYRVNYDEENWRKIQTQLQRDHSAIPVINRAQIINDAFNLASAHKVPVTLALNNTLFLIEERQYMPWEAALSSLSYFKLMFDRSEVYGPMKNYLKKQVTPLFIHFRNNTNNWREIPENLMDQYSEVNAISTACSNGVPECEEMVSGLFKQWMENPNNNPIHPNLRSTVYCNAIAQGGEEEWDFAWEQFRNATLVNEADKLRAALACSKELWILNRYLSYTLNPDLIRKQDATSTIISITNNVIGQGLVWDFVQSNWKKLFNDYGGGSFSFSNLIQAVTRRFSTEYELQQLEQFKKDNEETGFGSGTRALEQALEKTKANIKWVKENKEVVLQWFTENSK
Protocol: (§1) Recombinant CD13 (rCD13) enzyme activity and inhibition assays were performed as described previously using L-alanine-p-nitroanilide or L-alanine 7-amido-4-methylcoumarin as substrates in 60 mM Tris–HCl, pH 7.4, or 60 mM potassium phosphate buffer, pH 7.4. Mixtures containing peptides at various concentrations, rCD13 (0.2 µg/mL), and L-alanine-p-nitroanilide substrate (0.5 mM) in 60 mM potassium phosphate buffer, pH 7.4 (total volume, 0.1 ml) were prepared and left to react for 30 min at 37 °C. The products were then analyzed using a plate reader (iMark Microplate Absorbance Reader; Bio-Rad). Alternatively, the assay was performed using 0.1 mM L-alanine 7-amido-4-methylcoumarin in 60 mM Tris–HCl, pH 7.4, as a substrate. Fluorescence intensity of methylcoumarin was measured on an Infinite 200 PRO plate reader (Tecan) using the following settings: excitation wavelength: 341 nm; emission wavelength: 441 nm; excitation bandwidth: 9; emission bandwidth: 20 nm; gain: 109 manual; number of flashes: 25; integration time: 20 µs; lag time: 0 µs; settle time: 0 ms.
(§2) The IC50 of each inhibitor was calculated by non-linear regression analysis of inhibition data using GraphPad Prism Software (GraphPad Software, Version 9.00, San Diego, CA). Steady-state enzyme kinetic analyses were performed using various concentrations of L-alanine-p-nitroanilide (0–1.5 mM) and VGCARRYCS peptide (0–900 nM). The initial velocities (Vo) were calculated from the slopes of the first 5 min of reaction. The enzyme inhibitory constant (Ki) was calculated using the competitive enzyme inhibition model in GraphPad Prism Software.
A) VGCGRRYCSN and CSGIGSSGGC (control) peptides, at various concentrations, were mixed with rCD13 (0.2 µg/mL), L-alanine-p-nitroanilide substrate (0.5 mM), in 60 mM potassium phosphate buffer, pH 7.4. The mixtures were left to react for 30 min at 37° C; then the absorbance at 405 nm of each mixture was measured using an ELISA plate reader (Bio-Rad). The IC50 of each inhibitor was calculated by non-linear regression analysis of inhibition data using the GraphPad Prism Software (GraphPad Software, Version 9.00, San Diego, CA). The result of one experiment performed in duplicate is shown (mean ± SEM).

[3] = tested on: membrane CD13 expressed by HUVEC; test: Competitive binding of anti-CD13 mAb WM15 to HUVEC by flow cytometry; design: species or system human; conditions: Fig. 4C and 4D
Protocol: HUVEC were seeded in 96-well U-bottom polystyrene microtiter plates at a density of 2 × 10^5 cells in 100 µL DPBS supplemented with 5% normal human serum (NHS) and mixed with a mixture of peptide G4 ranging from 0 to 10 µM and mAb WM15 (0 or 0.13 nM). The chromogranin A429-439 peptide fragment (CgA429-439) was used instead of G4 as a control. After 1 h of incubation at 4 °C, the cells were washed and resuspended in 100 µL of DPBS containing 5% NHS and 1 µg/mL of FITC-labeled goat anti-mouse IgG secondary antibody. Cells were subsequently incubated for 1 h at 4 °C, washed, and analyzed by flow cytometry. All flow cytometry data were collected on a CytoFLEX S flow cytometer (Beckman Coulter) and analyzed using FlowJo software 10 (BD BioScience).
Fig. 2 G4 recognizes soluble forms of CD13, with higher affinity and selectivity than bestatin, and the membrane forms expressed on the surface of HUVEC cells. A Inhibitory effects of G4 and bestatin on the enzymatic activities of different aminopeptidases (rCD13, APA, and APB). Various amounts of G4 or bestatin were incubated with rCD13 (0.2 µg/mL in 60 mM Tris–HCl pH 7.4), APA (0.2 µg/mL in 60 mM Tris–HCl pH 7.4, 50 mM calcium chloride, 200 mM sodium chloride) or APB (0.2 µg/mL in 60 mM Tris–HCl pH 7.4, 100 mM potassium chloride) and the corresponding substrates at 0.1 mM (L-alanine-7-amido-4-methylcoumarin for rCD13, L-glutamic acid γ-(7-amido-4-methylcoumarin) for APA, and L-arginine-7-amido-4-methylcoumarin for APB). The mixtures were incubated for 30 min at 37 °C, and the cleavage of each substrate was monitored by measuring the fluorescence of methylcoumarin (λex 341 nm; λem 441 nm) using an Infinite 200 PRO plate reader (Tecan). Three independent experiments were performed for each enzyme. […] Substrate cleavage by sCD13 dissociated from mAb WM15 was then monitored by measuring the absorbance at 405 nm in each well using a plate reader (Bio-Rad). […] After incubation for 60 min at 4 °C, the cells were washed and analyzed by flow cytometry. Data are expressed as the percentage of counts vs. fluorescence intensity units […]

[4] = tested on: recombinant human aminopeptidase B (APB); test: Enzyme activity assay of recombinant APB; type: biochemical; conditions: APB 0.2 µg/mL, 60 mM Tris–HCl pH 7.4, 100 mM KCl, 0.1 mM L-arginine-7-amido-4-methylcoumarin, 30 min, 37 °C
Protocol: The effect of peptides on the enzymatic activity of APA and APB was evaluated using the method described previously with some modifications. Briefly, threefold serial dilution of peptides (ranging from 0 to 10 or 100 µM) were incubated with either APA (0.2 µg/mL in 60 mM Tris–HCl pH 7.4, 50 mM CaCl2, 200 mM NaCl) or APB (0.2 µg/mL in 60 mM Tris–HCl pH 7.4, 100 mM KCl) and relative substrates at 0.1 mM (L-glutamic acid γ-(7-amido-4-methylcoumarin) or L-arginine-7-amido-4-methylcoumarin, respectively) in 96-well bottom clear black polystyrene microtiter plates (100 µl/well). The mixture was incubated for 30 min at 37 °C in a humid box, and the cleavage of the substrate was correlated with aminopeptidase enzymatic activities by measuring the fluorescence of methylcoumarin at λex 341 nm and λem 441 nm with a plate reader (Infinite 200 PRO, Tecan). IC50 was calculated as reported above for CD13 activity.
Fig. 2 G4 recognizes soluble forms of CD13, with higher affinity and selectivity than bestatin, and the membrane forms expressed on the surface of HUVEC cells. […] The mixtures were incubated for 30 min at 37 °C, and the cleavage of each substrate was monitored by measuring the fluorescence of methylcoumarin (λex 341 nm; λem 441 nm) using an Infinite 200 PRO plate reader (Tecan). […] After incubation for 60 min at 4 °C, the cells were washed and analyzed by flow cytometry. […]

[5] = molecular target: T1, recombinant human CD13 (rCD13); test: rCD13 enzyme inhibition assay, L-alanine 7-amido-4-methylcoumarin substrate; type: biochemical; conditions: rCD13 0.2 µg/mL, 60 mM Tris–HCl pH 7.4, 0.1 mM L-alanine-7-amido-4-methylcoumarin, 30 min, 37 °C
Protocol: as §1, §2
Fig. 2 G4 recognizes soluble forms of CD13, with higher affinity and selectivity than bestatin, and the membrane forms expressed on the surface of HUVEC cells. A Inhibitory effects of G4 and bestatin on the enzymatic activities of different aminopeptidases (rCD13, APA, and APB). Various amounts of G4 or bestatin were incubated with rCD13 (0.2 µg/mL in 60 mM Tris–HCl pH 7.4), APA (0.2 µg/mL in 60 mM Tris–HCl pH 7.4, 50 mM calcium chloride, 200 mM sodium chloride) or APB (0.2 µg/mL in 60 mM Tris–HCl pH 7.4, 100 mM potassium chloride) and the corresponding substrates at 0.1 mM (L-alanine-7-amido-4-methylcoumarin for rCD13, L-glutamic acid γ-(7-amido-4-methylcoumarin) for APA, and L-arginine-7-amido-4-methylcoumarin for APB). The mixtures were incubated for 30 min at 37 °C, and the cleavage of each substrate was monitored by measuring the fluorescence of methylcoumarin (λex 341 nm; λem 441 nm) using an Infinite 200 PRO plate reader (Tecan). Three independent experiments were performed for each enzyme. The results of one representative experiment for each enzyme are shown (mean ± SEM, duplicates). B Inhibitory effects of G4 and bestatin on soluble CD13 immunocaptured from human serum (sCD13) using microtiter plates coated with anti-CD13 mAb WM15. The microtiter plate was filled with a solution of mAb WM15 (5 μg/ml in DPBS) and incubated overnight at 4 °C. The plate was then washed with DPBS, blocked with 3% bovine serum albumin (BSA) in DPBS, and filled with human serum containing soluble CD13 (diluted 1:2 with DPBS containing 2% BSA). After washing with DPBS, mixtures of G4 or bestatin (0–100 µM in 60 mM Tris–HCl, pH 7.4) and L-alanine p-nitroanilide hydrochloride substrate (4.5 mM in 60 mM Tris–HCl, pH 7.4) were added and left to incubate at 37 °C for 2 h. Substrate cleavage by sCD13 dissociated from mAb WM15 was then monitored by measuring the absorbance at 405 nm in each well using a plate reader (Bio-Rad). The results of one experiment performed in triplicate are shown (mean ± SEM). C Effect of G4 on the binding of the anti-CD13 mAb WM15 to HUVEC. HUVEC were seeded at a density of 2 × 10^5 cells in 100 µL DPBS supplemented with 5% normal human serum (NHS) and incubated with a mixture of G4 peptide (0, 0.1, 1, and 10 µM) and mAb WM15 (0 or 0.13 nM) as indicated. […]

Compound | Endothelial cell adhesion to coated plates (in words) [1] | Inhibition of rCD13 enzymatic activity (in words) [2] | Competition of mAb WM15 binding to HUVEC (in words) [3] | Inhibition of APB enzymatic activity (in words) [4] | Inhibition of rCD13 enzymatic activity (in words) [5]
VGCARRYCSGGSGGGSGK-biotin [G4-avidin, …-biotin complexed with avidin] | promoted endothelial cell adhesion | could not inhibit the enzymatic activity of recombinant soluble CD13 | competed the binding of mAb WM15 to endothelial cells |  | 
CC(C)C[C@H](NC(=O)[C@@H](O)[C@H](N)Cc1ccccc1)C(=O)O [bestatin, Bestatin-hydrochloride] |  |  |  | inhibited both rCD13 and APB | inhibited both rCD13 and APB
